According to patent US20180064662A1 (THE GENERAL HOSPITAL CORPORATION, priority 2015, published 2018):

Experiments:
human pancreatic cancers = assay: HA and collagen-I staining of human PDAC surgical samples, patients with or without metformin; type: in vivo
Source text: Human samples of pancreatic cancer were obtained from the Massachusetts General Hospital tissue repository. Written informed consent from the donor or the next of kin was obtained for the use of these samples for research purposes. Tumors selected received no prior chemotherapy or radiation therapy before the surgical specimen was collected at the time of tumor resection. A total of 28 samples were randomly selected from this subset of samples. Body mass index was obtained for the respective sample. […] Paraffin sections were stained for collagen-I and HA as described below. Images were acquired using confocal microscopy and quantified using Matlab. Data were analyzed anonymously.
For analysis of frozen sections of mouse tumor tissues, the tumors were excised and frozen in optimal cutting temperature compound (Tissue-Tek). Transverse tumor sections, 10 μm thick, were immunostained with specific antibodies. To obtain mosaic images of tumor sections, an Olympus FV1000 confocal laser-scanning microscope was used. A 10× air objective acquired 1260-μm square tiles, and an automated stage scanned throughout the entire cross-section of tumor tissue. The imaged tiles were stitched into a final mosaic image using Olympus software. Antigen expression was quantified by measuring the area occupied by the stain of interest normalized by the area of DAPI-stained nuclei (i.e., unit less), and analyzed using a custom algorithm in MATLAB (The MathWorks). Identical settings and thresholds for analysis were used for all tumors. Antibodies used for immunofluorescence were the following: Collagen-I [LF-68 antibody, 1:50 dilution, provided by Dr Larry Fisher (NIDCR)]; Hyluronan (biotinylated hyaluronan proteoglycan fragment, 385911, Calbiochem, 1:200 dilution); αSMA (C6198 antibody, Sigma, 1:500 dilution); and F4/80 (MCA497A488 antibody, ABDserotec, 1:200 dilution). Cy3-, Cy5- or FITC-conjugated secondary antibodies were used for the detection of signals by confocal microscopy. Slides were counterstained with DAPI for nuclear staining.

PAN02 tumors = assay: Orthotopic PAN02 PDAC model in obese C57BL/6 mice, metformin in drinking water; type: in vivo, mouse
Source text: Wild-type (WT) C57BL/6 and FVB male mice were originally obtained from The Jackson Laboratory (The Jackson Laboratory, Bar Harbor, Me.) and bred and maintained in our defined-flora animal facility. Mice were maintained on a 12-h light-dark cycle in a temperature-controlled barrier facility, with ad libitum access to food and acidified water. To generate obese/diabetic mouse models, mice (6-weeks old) were given a 60% fat diet (D12492, Research Diets, New Brunswick, N.J.) for 10 weeks as previously described (49-51). For tumor experiments, the PAN02 and AK4.4 syngeneic PDAC models were used in C57BL/6 and FVB immunocompetent mice, respectively. PAN02 cells (SMAD4-m174) (52) were obtained from ATCC. AK4.4 cells (KrasG12D and p53^+/−) were isolated from mice generating spontaneous pancreatic tumors (Pt∫1-Cre/LSL-Kras^G12D/p53^Loxi−) (53). Orthotopic pancreatic tumors were generated by implanting a small piece (1 mm^3) of viable tumor tissue (from a source tumor in a separate donor animal) into the pancreas of a 6-8- week-old male lean or obese FVB (AK4.4 model) or C57BL/6 (PAN02 model) mouse. Both tumor models used were authenticated by IDEXX Laboratories. (PAN02: IDEXX RADIL Case # 22366-2013. AK4.4: IDEXX RADIL Case # 27818-2014).
At day 21, plasma and tumor samples were collected, and tumors were weighed and processed for further analysis.
This can be translated to the human equivalent dose by using the Reagan-Shaw method (54). According to the formula for the human equivalent dose [(mg/kg)=animal dose (mg/kg)×animal (km)/human (km). Km for a 60 kg human adults equals 37 and for a 20 g mouse equals 3], the human equivalent of murine dose of 300 mg/kg is 1459 mg for an average sized 60 kg adult human. Therefore, the selected dose in the present study is within the safe therapeutic range recorded in humans. […] This was compatible with the therapeutic periods reported in previous studies (55, 56). […] The amount added to each animal cage was calculated based on the average daily water intake for that cage during a period of 2 weeks prior to treatment initiation, and adjusted every three days based on water consumption and body weight of the animals. […] For in vitro experiments, a range of concentration from 0.05 to 25 mM depending on the cell line used, as discussed below.
Immediately following excision, tumor tissue was snap frozen and stored in liquid nitrogen. Total RNA was extracted and relative gene expression for macrophage M1/M2 markers was determined using a Sybr-green based standard protocol. In addition, total RNA was extracted and relative gene expression was determined using RT2 Profiler PCR Arrays system (Qiagen) on a Stratagene Mx3000P QPCR System using pre-made pathway-focused arrays (“Fibrosis”-Cat. Number: PAMM011Z; “Epithelial to Mesenchymal Transition (EMT)”-Cat. Number: PAMM090Z; “TGF-β signaling targets”-PAMM235Z; “Extracellular Matrix & Adhesion Molecules”-Cat. Number: PAMM013Z; and “Common cytokines ”-Cat. Number: PAMM021Z).
Each tumor sample was homogenized directly in lysis buffer for protein extraction. 20 ug of denatured protein per sample was loaded on 7%, 10% and 12% SDS-polyacrylamide gels. Antibodies used: phospho-p38 MAPKT^180/Y182 and p38; phospho-JNK (SAPK/JNK)^Thr183/Tyr185 and JNK; phospho-AKT^Ser473 and AKT, phospho-ERK(p44/42 MAPK)^T202/Y204 and ERK; phospho-NF-κB^Ser536 and NK-κB; p65^Ser536; phospho-Smad2^Ser465/467 and Smad2; phospho-IGF-I Receptor β^Tyr1135 and IGF; Phospho-IRS-1^Ser612 and IRS; IR; phpspho-stat3^Tyr705 and stat3; Phospho-AMPKα^Thr172 and Ampkα; phospho-Ampkβ^Ser108 and Ampk; phospho-ACC^Ser79 and ACC; Phospho-PDGF Receptor β^Tyr751 and PDGF Receptor β and snail, c-cadherin and vimentin, TGF-β, β-catenin, twist, LC3B. […]

macrophage viability = assay: MTT viability assay on macrophages; type: cell-based, mouse; conditions: 48 h
[1] = TAMs from PAN02 tumors in vivo, qPCR
[2] = obese C57BL/6 mice, metformin 300 mg/Kg
[3] = particularly evident in the more metastatic model PAN02

CN(C)C(=N)N=C(N)N [metformin, 3-(diaminomethylidene)-1,1-dimethylguanidine]
collagen-I expression (human pancreatic cancers; either body weight group): no impact
levels of HA lower than in patients not taking metformin (human pancreatic cancers; overweight or obese patients, chemo/radiotherapy naive PDAC surgical samples): 30%
HA levels (human pancreatic cancers; patients of normal weight): no difference
expression of M1 markers in flow-sorted TAMs (PAN02 tumors; [1]): without significantly affecting
expression of M2 marker Arg-1 in flow-sorted TAMs (PAN02 tumors; [1]): 1/2
expression of M2 marker IL-10 in flow-sorted TAMs (PAN02 tumors; [1]): 2/3
activation and phosphorylation of IGFR-1 and IRS-1 in tumors (PAN02 tumors; Western blot): trend for reduced activation and phosphorylation
activation of ACC in tumors (PAN02 tumors; Western blot): increased
expression of the autophagy marker L3CB (PAN02 tumors; Western blot): unchanged
average MMP-2 levels in metformin treated tumors (PAN02 tumors; Western blot, not significant): approximately half
IL-1β in tumors (PAN02 tumors; after metformin treatment): reduction of IL-1β
TAM levels lower with metformin treatment (PAN02 tumors; flow cytometry, not significant): ~30%
activation of STAT3 in whole tumors (PAN02 tumors; [2]): decreased activation of STAT3
p38 activation in whole tumors (PAN02 tumors; [2]): trend for reduced p38
decreased expression of HA (PAN02 tumors; obese C57BL/6 mice, metformin 300 mg/Kg in drinking water, did not reach statistical significance): 40%
reduced density of HA positive activated-PSCs (PAN02 tumors; obese C57BL/6 mice, metformin 300 mg/Kg, did not reach significance): 57%
decreased expression of collagen-I (PAN02 tumors; obese C57BL/6 mice, metformin 300 mg/Kg, did not reach statistical significance): 22%
reduced density of collagen-I positive activated PSCs in tumors (PAN02 tumors; obese C57BL/6 mice, metformin 300 mg/Kg, significant): 54%
average number of mesenteric peritoneal and retroperitoneal wall metastasis per mouse (PAN02 tumors; [3]): reduced
incidence of metastasis (number of mice affected) (PAN02 tumors; [3]): reduced the incidence of metastasis
body weight (PAN02 tumors; tumor-bearing mice): no change in body weight
doses at which metformin reduces macrophage viability (macrophage viability): > 0.2 mM
doses at which metformin reduces macrophage viability (macrophage viability; listed as Metformin): ≥ 0.4 mM
